The values that follow are results of earlier work, collected in US12194073B1, “Method of arthropod egress” (priority 2023, dated 2025).

For series [1] the following is noted: for shelf stability at ambient temperature: suspension in vegetable oils, glycerol, mineral oil and white petrolatum.
The conditions of series [2]: for ocular adverse effects: suspension in vegetable oils, glycerol, mineral oil and white petrolatum.
For series [3] the following is noted: for drug payload: solution in squalane, with/without mineral oil.
For series [4] the following is noted: for therapeutic effect: suspension in vegetable oils, glycerol, mineral oil and white petrolatum.
Assay in series [5]: not given
The source holds these as a separate data set.

For series [6] the following is noted: squalane, with/without mineral oil, as vehicle.
For series [7] the following is noted: solution in SFA (F4H5).
For series [8] the following is noted: self-emulsifying system; corn oil, PEG-6 esters, Tween 80 and Transcutol.
Series [9] concerns Demodex folliculorum. The note with it: all three concentrations; in vitro; vs 5% permethrin.
Assay in series [10]: not given
This is another data set of the same source.

[11] abbreviates: solution in DMSO and castor oil.
[12] abbreviates: self-emulsifying system, Capmul MCM, Cremophor RH 40, Transcutol and hydroxypropylmethyl cellulose.
The mark [13] stands for this setting: self-emulsifying system, S-protected thiolated Eudragit L100-55-BAK ion pair, Labrafil M 1944CS.
Where [14] appears, read: suspension in sesame seed oil vs high-dose viscous aqueous formulation.
The mark [15] stands for this setting: self-emulsifying system, corn oil, PEG-6 esters, Tween 80 and Transcutol.
The mark [16] stands for this setting: oleogel, soyabean oil, beeswax and gelator.

Read-outs that look alike come from different tables or passages of the source.

For `O=C(O)c1cccc(-c2noc(-c3ccccc3F)n2)c1` [Ataluren], in series [1] (setting [11]), the Sterility entry was “Sterility maintained and drug degradation”; the drug degradation entry is “inhibited; no penetration studies performed”.
Take `CC[C@H]1OC(=O)[C@H](C)[C@@H](O[C@H]2C[C@@](C)(OC)[C@@H](O)[C@H](C)O2)[C@H](C)[C@@H](O[C@@H]2O[C@H](C)C[C@H](N(C)C)[C@H]2O)[C@](C)(O)C[C@@H](C)CN(C)[C@H](C)[C@@H](O)[C@]1(C)O` [Azithromycin]: in series [2] (Azyter, solution in MCT), the “adverse events (if any) in clinical trials” value is recorded as “mild to moderate” and the tolerability entry was “well tolerated”.
For the compound `Clc1ccc(COC(Cn2ccnc2)c2ccc(Cl)cc2Cl)cc1` (stereo not drawn) [Econazole nitrate], under setting [12], the penetration entry is listed as “Enhanced”. In addition, the “in vitro and in vivo safety” value in series [2] (setting [12]) was “acceptable in vitro and in vivo safety”. In series [3] (setting [13]), the “in vitro release profile” value was “good in vitro release profile; no in vivo studies”, the mucoadhesion result is on record as “Mucoadhesive” and the “sustained drug release over” value is listed as 8 h. For the same compound, the onset of action result in series [4] (setting [12]) is recorded as “faster”.
For `C[C@]12CCC(=O)C=C1CC[C@@H]1[C@@H]2[C@@H](O)C[C@@]2(C)[C@H]1CC[C@]2(O)C(=O)CO` [Hydrocortisone], the drug payload entry in [3] is recorded as “high drug payload; potential to reduce dosing”.
On to `CC(C)OC(=O)CCC/C=C\C[C@@H]1[C@@H](CC[C@@H](O)CCc2ccccc2)[C@H](O)C[C@@H]1O` [Latanoprost], for which, under “solution in SFA (F4H5, F6H8)”, the bioavailability result is “eyedrops at relatively lower dose; improved”. The Clinical efficacy result in series [4] (solution in SFA (F4H5, F6H8) at relatively lower dose vs marketed aqueous eyedrops) is “Clinical efficacy comparable to marketed aqueous”.
In the case of `CNC[C@H](O)c1cccc(O)c1` [Phenylephrine], in series [4] (setting [14]), the onset of action result is listed as “Faster” and the therapeutic response entry was “higher”.
For the compound `CC[C@@H]1C(=O)OC[C@@H]1Cc1cncn1C` [Pilocarpine], the ocular adverse effects entry in series [2] is “reduced”. Further, the therapeutic effect result in [4] is “Improved”. Further, the “shelf stability at ambient temperature” value in series [1] was “adverse effects; improved shelf stability at ambient”.
Turning to `CC[C@@H]1/C=C(\C)C[C@H](C)C[C@H](OC)[C@H]2O[C@@](O)(C(=O)C(=O)N3CCCC[C@H]3C(=O)O[C@H](/C(C)=C/[C@@H]3CC[C@H](Cl)[C@H](OC)C3)[C@H](C)[C@@H](O)CC1=O)[C@H](C)C[C@@H]2OC` [Pimecrolimus], the drug payload result in [3] is “high drug payload; potential to reduce dosing”. In series [5] (dog, in vivo), the safety result is “Better”. For the same compound, the clinical outcomes in series [5] (solution in corn oil vs ointments, dogs with DED) was “Better clinical outcomes”.
`C[C@]12C=CC(=O)C=C1CC[C@@H]1[C@@H]2[C@@H](O)C[C@@]2(C)[C@H]1CC[C@]2(O)C(=O)CO` [Prednisolone]: the precorneal drainage result (self-emulsifying system, linoleic acid, Cremophor RH 40 and propylene glycol) is “reduced”. Moreover, the drug payload entry in series [3] is “high drug payload; potential to reduce dosing”.
As to `CC(C)CCCC(C)CCCC(C)CCCCC(C)CCCC(C)CCCC(C)C` (stereo not drawn) [Squalane], in [6], the “symptomatic relief in DED (vehicle)” value is recorded as “Vehicle beneficial for symptomatic relief in DED;”.
On to `C=CC[C@@H]1/C=C(\C)C[C@H](C)C[C@H](OC)[C@H]2O[C@@](O)(C(=O)C(=O)N3CCCC[C@H]3C(=O)O[C@H](/C(C)=C/[C@@H]3CC[C@@H](O)[C@H](OC)C3)[C@H](C)[C@@H](O)CC1=O)[C@H](C)C[C@@H]2OC` [Tacrolimus], for which the intraocular penetration entry (solution in SFA (F4H5) vs aqueous suspension) is recorded as “greater intraocular penetration than aqueous”. In addition, in series [7], the “clinical signs of uveitis” value was “Significant improvement in clinical signs of uveitis;”.
Turning to `CC(C)N1CCN(c2ccc(OCC3COC(Cn4cncn4)(c4ccc(Cl)cc4Cl)O3)cc2)CC1` (stereo not drawn) [Terconazole], the drug release result in series [3] (setting [15]) is “rapid”. Further, the “conjunctival irritation in vitro” value in [8] is reported as “no”. Also, the drug stability result in series [1] (setting [15]) is listed as “Improved”.
As for `CN[C@H](CC(C)C)C(=O)N[C@H]1C(=O)N[C@@H](CC(N)=O)C(=O)N[C@H]2C(=O)N[C@H]3C(=O)N[C@H](C(=O)N[C@H](C(=O)O)c4cc(O)cc(O)c4-c4cc3ccc4O)[C@H](O)c3ccc(c(Cl)c3)Oc3cc2cc(c3O[C@@H]2O[C@H](CO)[C@@H](O)[C@H](O)[C@H]2O[C@H]2C[C@](C)(N)[C@H](O)[C@H](C)O2)Oc2ccc(cc2Cl)[C@H]1O` [Vancomycin], in [3] (setting [16]), the drug release entry is recorded as “Extended”; the “release profile and oleogel texture” value is on record as “customisable”.
For `O=C(O)CCCCCCCC(=O)O` [azelaic acid], the anti-Demodex efficacy result in series [9] is given as “comparable to that of 5% permethrin”.
Consider `O=C(O)c1cn(C2CC2)c2cc(N3CCNCC3)c(F)cc2c1=O` [ciprofloxacin], for which the drug payload result in series [3] is given as “high drug payload; potential to reduce dosing”.
`Cc1ccccc1N1CCN(CCc2nnc3n2CCCC3)CC1` [dapiprazole]: in series [2], the ocular adverse effects entry was “reduced”. In addition, the therapeutic effect entry in series [4] is “Improved”. Besides, the “shelf stability at ambient temperature” value in series [1] is “adverse effects; improved shelf stability at ambient”.
`C[C@]12C=CC(=O)C=C1CC[C@H]1[C@@H]3C[C@@H](O)[C@](O)(C(=O)CO)[C@@]3(C)C[C@H](O)[C@@]12F` [triamcinolone]: in series [3] (setting [16]), the drug release entry is reported as “Extended”; the “release profile and oleogel texture” value was “customisable”.
Regarding ivermectin, the “solubility among the oils tested” value in [10] was “highest solubility in tea tree oil followed by ethylbutanoate”.
